Assay [1] relates to KP2 cells. In words: Anchorage independent soft agar growth assay, KP2 cells. The assay is classed as cell-based, murine. Here is the method:
Cells were seeded at 5000-15000 cells in 0.3% noble agar-DMEM suspension per well, in triplicate, in 24 well plate. For drug treatment, compound was added to cell suspension at 1× concentration. Seeded cells were fed with fresh 0.6% agar-DMEM mix once every 7-12 days. […] After 3-6 weeks, colonies were counted under microscope and imaged. Colony count was normalized to control and graphed in GraphPad Prism v7/8.

Assay [2] has as its system p-FAK, p-ERK, total FAK, and FoxM1. The assay can be described thus: Reverse-phase protein array (RPPA) on HPNE-KRAS^G12D cells overexpressing IRAK4. The assay is classed as cell-based, human. On the procedure:
All lysates were prepared according to sample preparation guidelines provided by MD Anderson Cancer Center (MDACC). HPNE-KRAS^G12D were infected with retroviral particles containing AU1-tagged IRAK4 WT or vector control in presence of 8 μg mL-1 polybrene, selected with blasticidin (10 μg mL-1) and RPPA was performed. For drug treatment, IRAK4 overexpressing cells were treated with AS2444697 2 μM or vehicle (DMSO) for 24 hours. For evaluation of TPL2 WT and E188K, 293T cells were transfected in duplicates with Vector (pbabe-puro), TPL2 WT or TPL2 E188K along with equal amount of polyethylenimine. Cells were harvested 48 hrs post-transfection and lysates were prepared and sent for RPPA. For both RPPA experiments, lysates were quantified by Bradford assay (Thermo Scientific), equalized for concentration, and denatured and reduced by adding 4×SDS sample buffer (without bromophenol blue) and boiling for 5 minutes.

The test system of assay [3] is MAPK activity. In words: Immunoblots of MAPK activity in murine PDAC lines KP2 and KI. The settings on record: 24 hours, serum-free. The assay is classed as cell-based. On the procedure: Standard immunoblotting procedure was followed. Cells were washed twice with ice-cold 1×PBS and lysed with ice-cold triton-X lysis buffer (25 mM Tris, pH 7.4, 150 mM NaCl, 5 mM EDTA, 1% Triton-X) containing 1× protease (10 μg mL-1 leupeptin, 700 ng mL-1 pepstatin, 170 ng mL-1 aprotinin, 1 mM PMSF) and phosphatase (10 mM NaF, 1 mM Na3VO4, 1 mM Na4P2O^7, 5 mM Na b-glycerophosphate) inhibitors. Lysates were quantified by Bradford assay (Thermo Scientific), normalized for concentration, and reduced and denatured with 6×SDS sample buffer followed by boiling for 5 minutes. 20-40 μg of protein per sample was resolved by SDS-PAGE, blotted on PVDF membrane and probed with primary antibodies (Cell Signaling Technologies: p-ERK1/2 (#4370), p-MEK1/2 (#9154), ERK1/2 (#4695), MEK1/2 (#8727), p-p105 (#4806), NFS2KB1 p105/p50 (#3035), p-IRAK4 (#11927), IRAK4 (#4363), ubiquitin (#43124), anti-HA (#3724), p-p90RSK (#11989), RSK1/2/3 (#9355), p-TPL2 (#4491), PARP (#9532), p-B-RAF S445 (#2696), BRAF (#9433S). Santa Cruz Biotechnology: GAPDH (#sc-32233), p-p65 […] (#sc101752). Thermo Fisher Scientific: p-55 TPL2 (#PA5-36635). EMD Millipore: IRAK4 (#07-418). R&D systems: TPL2/MAP3K8 (#MAB4586). Novus Biologicals: anti-AU1 (#NB600-453). Abcam: p-p65 […] (#ab194726)). […]
In general terms: In western blotting, separated proteins are transferred to a membrane and probed.

For assay [4], the system named is serum-response element (SRE). The assay can be described thus: Serum-response element (SRE) luciferase reporter assay. The assay is classed as cell-based, human. The settings on record: HPAC cells. On the procedure: (§1) Cells stably expressing plasmid encoding serum-response-element (SRE) or NFKB promoter driven Firefly luciferase and constitutive Renilla luciferase were seeded at equal density per well and treatment was initiated the next day for 16-24 duration. Alternatively, 293T reporter cells were transfected in duplicate or triplicate with 1 μg of appropriate plasmid DNA. Medium was replaced 16-18 hours later and at 48 hours post-transfection reporter activity was measured using Dual-Glo® Luciferase Assay System. Data was acquired using SpectraMax i3Microplate Reader and analysis was performed by calculating ratio of firefly:renilla. Values were normalized to control and graphed using GraphPad Prism v7/8 software.
Background: A reporter such as luciferase makes a cellular process visible.

The test system of assay [5] is NF-κB reporter activity. In words: NF-κB luciferase reporter assay. It counts as cell-based, human. The settings on record: KRAS-mutant PDAC cells (PANC-1); serial dilutions from 20 μM; 18 hours. Here is the method: as §1
Assay [6] has as its system KRAS-mutant PDAC lines. The assay can be described thus: Drug response and viability assay (AlamarBlue), PDAC lines. The assay is classed as cell-based, human. The settings on record: various KRAS-mutant PDAC lines; 5 and 7 days. On the procedure:
Cells were seeded at 1500-2500 cells per well in triplicates, in 96 well format. Next day, appropriate inhibitor was added in serial dilution from 1.00×102 μM or indicated single doses. Vehicle (DMSO) was added to match volume of inhibitor used for highest concentration. […] Fluorescence at 585 nm (excitation 555 nm) was measured by SpectraMax i3 Microplate Reader. Raw values were normalized to vehicle, analyzed and graphed using GraphPad Prism v7/8 software.
(In general: Resazurin is reduced to fluorescent resorufin, in cell work by metabolically active cells.)

SMILES strings stand for the structures.

Experimental findings from patent publication US12173039B1, “TPL2 inhibiting agents, uses thereof, and detection of TPL2” (Washington University, priority 2021, dated 2024) are described below.

Consider `CC[C@@H]1[C@H](F)C(=O)N[C@@H]1COc1nccc2cc(C(N)=O)c(OC)cc12` [PF06650833, 1-(((2S,3S,4S)-3-ethyl-4-fluoro-5-oxopyrrolidin-2-yl)methoxy)-7-methoxyisoquinoline-6-carboxamide], for which, in assay [1], the “AI growth in soft agar” value was “dose-dependently suppressed”. The “MAPK target proteins (RPPA)” value in assay [2] is listed as “suppressed”. Further, in assay [2] (24 hours), the “IRAK4-induced increase in p-FAK, p-ERK, total FAK, and FoxM1 (RPPA)” value is given as “reversed”. Moreover, in assay [3], the “MAPK activity (immunoblot)” value is “dose-dependently suppressed”. Besides, the “SRE-driven luciferase reporter activity” value in assay [4] was “dose-dependently reduced”. Also, the NF-κB reporter activity entry in assay [5] is listed as “dose-dependently suppressed”. Moreover, the viability entry in assay [6] is given as “dose-dependently reduced”.
